Experimental findings from ChEMBL document CHEMBL1201862, “PubChem BioAssay data set” (2004) are described below.

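Compound exposure: 48 hours, 5 concentrations, 96-well plates. Here, GI50 denotes the concentration required for 50% inhibition of growth.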 Activity calls are given as the source filed them. Rule as the data show it: active = GI50 up to about 1.1 µM and inactive = higher.

Holding throughout (experiment): NCI anticancer screen, dose series, 48 h
Assay [1] concerns SF-295.
Assay [2] relates to MCF7.
Assay [3] has as its system SF-539.
Assay [4] relates to M14.
Assay [5] has as its system OVCAR-8.
Assay [6] deals with CAKI-1.
Assay [7] concerns DLD-1.
In assay [8] the test system is PC-3.
Assay [9] has as its system HT-29.
The subject of assay [10] is CCRF-CEM.
For assay [11], the system named is OVCAR-5.
Assay [12] has as its system SR.
For assay [13], the system named is OVCAR-3.
In assay [14] the test system is SN12C.
In assay [15] the test system is SK-MEL-5.
Assay [16] deals with ACHN.
Assay [17] concerns SK-MEL-2.
Assay [18] concerns MDA-N.
In assay [19] the test system is UO-31.
Assay [20] has as its system LOX IMVI.

On to `N#CC1(C#N)C2(c3ccccc3)OC(c3ccccc3)(c3cc4ccccc4cc32)C1(C#N)C#N`, for which the GI50 was 15.8 µM (inactive) in assay [1]; 5.38 µM (inactive) in assay [2]; 16.1 µM (inactive) in assay [3]; 10.6 µM (inactive) in [4]; 8.3 µM (inactive) in assay [5]; 7.91 µM (inactive) in assay [6]. The GI50 in assay [7] was 8.73 µM (inactive); in [8], 17.1 µM (inactive); in [9] it was 14.8 µM (inactive); in [10], 1.08 µM (active); in assay [11], 15.8 µM (inactive); in [12], 33.3 µM (inactive). The GI50 in assay [13] was 13.9 µM (inactive); in assay [14] it was 16.6 µM (inactive); in assay [15] it was 14.3 µM (inactive); in [16], 11.8 µM (inactive); in assay [17], 19.4 µM (inactive); in assay [18], 16.9 µM (inactive). For the same compound, the GI50 is 24 µM (inactive) in assay [19] and 4.91 µM (inactive) in assay [20].
